Measured values: paper PMC8225045, “Chemical Synthesis and Structure-Activity Relationship Study Yield Desotamide a Analogues with Improved Antibacterial Activity” (Marine Drugs, 2021)
≈ marks a conversion by molar mass, not a printed value. Like-named read-outs stand apart in the source and are kept apart here. Non-standard residues stand in square brackets, D forms with d. Residues, ends and D or L forms follow the SMILES beside them. aIle = CC[C@@H](C)[C@H](N)C(=O)O; dOrn = NCCC[C@@H](N)C(=O)O

Legend:
Gram-positive pathogens = conditions: for Gram positive antibacterial activity for desotamides (in words) / Gram positive antibacterial activity for wollamides (in words): summary; for Gram positive antibacterial activity for desotamides (in words): Figure 2; for fold increase of antibacterial activities compared to desotamide A (1): entire test panel of Gram-positive bacteria; for Gram positive antibacterial activity for wollamides (in words): Figure 3
Procedure: (§1) All the synthesized cyclopeptides (7–19) and the desotamide A (1) isolated from S. scopuliridis SCSIO ZJ46 were evaluated for antibacterial activities against a series of Gram-positive pathogens including […] Staphylococcus aureus ATCC29213, Bacillus subtilis BS01, Micrococcus luteus ML01, Enterococcus faecalis ATCC29212; 3 drug-resistant poultry pathogens Staphylococcus simulans LJH13, Enterococcus gallinarum LJH11, Staphylococcus haemolyticus LJH9; 4 clinical methicillin-resistant Staphylococcus aureus (MRSA) shhs-E1, MRSA 16339, MRSA 745524, MRSA 16162. Their antibacterial activities against the […] pathogens Escherichia coli ATCC 13,124 and clinical drug-resistant Klebsiella pneumonia 15580 were also assayed.
(§2) Ampicillin, vancomycin and polymyxin were used as control. The maximum test concentrations for all the compounds were 128 μg/mL.

E. coli ATCC 13124 = test system: E. coli ATCC 13124
Procedure: as §1, §2

[1] = test system: Klebsiella pneumoniae 15580
Procedure: as §1, §2

[2] = test system: Enterococcus gallinarum LJH11; assay: microbe, parasite or virus in culture
Procedure: as §1, §2

[3] = test system: Staphylococcus simulans LJH13; assay: microbe, parasite or virus in culture
Procedure: as §1, §2

Micrococcus luteus ML01 = assay: microbe, parasite or virus in culture
Procedure: as §1, §2

[4] = test system: Staphylococcus aureus ATCC 29213; assay: microbe, parasite or virus in culture
Procedure: as §1, §2

[5] = test system: methicillin-resistant Staphylococcus aureus (MRSA) shhsE1; assay: microbe, parasite or virus in culture
Procedure: as §1, §2

[6] = test system: Enterococcus faecalis ATCC 29212; assay: microbe, parasite or virus in culture
Procedure: as §1, §2

MRSA 16339 = assay: microbe, parasite or virus in culture
Procedure: as §1, §2

MRSA 16162 = assay: microbe, parasite or virus in culture
Procedure: as §1, §2

[7] = test system: Staphylococcus haemolyticus LJH9; assay: microbe, parasite or virus in culture
Procedure: as §1, §2

Bacillus subtilis BS01 = assay: microbe, parasite or virus in culture
Procedure: as §1, §2

MRSA 745524 = assay: microbe, parasite or virus in culture
Procedure: as §1, §2

Gram-negative pathogens = conditions: weak activity; summary of Table 1
Procedure: as §1, §2

[8] = no notable antibacterial activities; cited from earlier work
Source text: Comparison of the naturally produced desotamides, a preliminary SAR of this class of compounds has been defined.

Staphylococcus aureus = test system: Staphylococcus aureus; set-up: method as in PMID 25229313; conditions: previous report; cited from earlier work
[9] = E. coli ATCC 13124, two-fold serial dilution, Mueller-Hinton broth, 96-well plate, CLSI-based, maximum test concentration 128 μg/mL
[10] = clinical drug-resistant Klebsiella pneumoniae 15580, two-fold serial dilution, Mueller-Hinton broth, 96-well plate, CLSI-based, maximum test concentration 128 μg/mL
[11] = clinical MRSA shhsE1, two-fold serial dilution, Mueller-Hinton broth, 96-well plate, CLSI-based, maximum test concentration 128 μg/mL

Molecule	Gram positive antibacterial activity for desotamides (in words) (Gram-positive pathogens)	MIC [1]; 15580	MIC [2]	MIC [3]	MIC (Micrococcus luteus ML01; ML01)	MIC ([4]; ATCC 29213)	MIC ([5]; methicillin-resistant shhsE1)	MIC ([6]; ATCC 29212)	MIC (MRSA 16339; 16339)	MIC (MRSA 16162; 16162)	MIC [7]	MIC (Bacillus subtilis BS01; BS01)	MIC (MRSA 745524; 745524)	MIC (E. coli ATCC 13124; [9])	also measured
CC[C@@H](C)[C@@H]1NC(=O)[C@@H](CC(C)C)NC(=O)[C@H](CC(C)C)NC(=O)[C@H](Cc2c[nH]c3ccccc23)NC(=O)CNC(=O)[C@H](CC(N)=O)NC1=O [Compound 1, desotamide A] (cyclo(GWL[dL][aIle]N))	Moderately active	>128 µg/mL	64 µg/mL (≈ 91.8 µM)	16 µg/mL (≈ 23 µM)	32 µg/mL (≈ 45.9 µM)	32 µg/mL (≈ 45.9 µM)	64 µg/mL (≈ 91.8 µM)	64 µg/mL (≈ 91.8 µM)	16 µg/mL (≈ 23 µM)	32 µg/mL (≈ 45.9 µM)	128 µg/mL (≈ 184 µM)	32 µg/mL (≈ 45.9 µM)	8 µg/mL (≈ 11.5 µM)		MIC (E. coli ATCC 13124; ATCC 13124): >128 µg/mL
CC[C@H](C)[C@@H]1NC(=O)[C@H](CC(N)=O)NC(=O)[C@@H](CCCCN)NC(=O)[C@H](Cc2c[nH]c3ccccc23)NC(=O)[C@H](CC(C)C)NC(=O)[C@@H](CC(C)C)NC1=O [Compound 13, Desotamide A4] (cyclo(I[dL]LW[dK]N))	2–4-Fold more active than 1	>128 µg/mL	64 µg/mL (≈ 83.3 µM)	8 µg/mL (≈ 10.4 µM)	8 µg/mL (≈ 10.4 µM)	16 µg/mL (≈ 20.8 µM)	16 µg/mL (≈ 20.8 µM)	32 µg/mL (≈ 41.7 µM)	16 µg/mL (≈ 20.8 µM)	16 µg/mL (≈ 20.8 µM)	32 µg/mL (≈ 41.7 µM)	8 µg/mL (≈ 10.4 µM)	16 µg/mL (≈ 20.8 µM)		MIC against the Gram-negative pathogens tested (summary) (Gram-negative pathogens): 64 to 128 µg/mL; MIC values against Gram-positive pathogens (summary over the panel) (Gram-positive pathogens): 8 to 32 µg/mL; fold increase of antibacterial activities compared to desotamide A (1) (Gram-positive pathogens): 2–4 fold; MIC (E. coli ATCC 13124; ATCC 13124): 64 µg/mL (≈ 83.3 µM)
CC(C)C[C@@H]1NC(=O)[C@H](Cc2c[nH]c3ccccc23)NC(=O)[C@@H](CCCN)NC(=O)[C@H](CC(N)=O)NC(=O)[C@H](C(C)C)NC(=O)[C@@H](CC(C)C)NC1=O [Compound 7, Wollamide B] (cyclo([dOrn]WL[dL]VN))														128 µg/mL (≈ 173 µM)	Gram positive antibacterial activity for wollamides (in words) (Gram-positive pathogens): Moderately active; MIC [1, 10]: >128 µg/mL; MIC ([2]; Enterococcus gallinarum LJH11, drug-resistant poultry pathogen, two-fold serial dilution, Mueller-Hinton broth, 96-well plate, CLSI-based, maximum test concentration 128 μg/mL): >128 µg/mL; MIC ([3]; Staphylococcus simulans LJH13, drug-resistant poultry pathogen, two-fold serial dilution, Mueller-Hinton broth, 96-well plate, CLSI-based, maximum test concentration 128 μg/mL): 16 µg/mL (≈ 21.6 µM); MIC (Micrococcus luteus ML01; Micrococcus luteus ML01, two-fold serial dilution, Mueller-Hinton broth, 96-well plate, CLSI-based, maximum test concentration 128 μg/mL): 16 µg/mL (≈ 21.6 µM); MIC ([4]; Staphylococcus aureus ATCC 29213, two-fold serial dilution, Mueller-Hinton broth, 96-well plate, CLSI-based, maximum test concentration 128 μg/mL): 32 µg/mL (≈ 43.2 µM); MIC [5, 11]: 32 µg/mL (≈ 43.2 µM); MIC ([6]; Enterococcus faecalis ATCC 29212, two-fold serial dilution, Mueller-Hinton broth, 96-well plate, CLSI-based, maximum test concentration 128 μg/mL): 128 µg/mL (≈ 173 µM); MIC (MRSA 16339; clinical MRSA 16339, two-fold serial dilution, Mueller-Hinton broth, 96-well plate, CLSI-based, maximum test concentration 128 μg/mL): 64 µg/mL (≈ 86.5 µM); MIC (MRSA 16162; clinical MRSA 16162, two-fold serial dilution, Mueller-Hinton broth, 96-well plate, CLSI-based, maximum test concentration 128 μg/mL): 64 µg/mL (≈ 86.5 µM); MIC ([7]; Staphylococcus haemolyticus LJH9, drug-resistant poultry pathogen, two-fold serial dilution, Mueller-Hinton broth, 96-well plate, CLSI-based, maximum test concentration 128 μg/mL): 64 µg/mL (≈ 86.5 µM); MIC (Bacillus subtilis BS01; Bacillus subtilis BS01, two-fold serial dilution, Mueller-Hinton broth, 96-well plate, CLSI-based, maximum test concentration 128 μg/mL): 32 µg/mL (≈ 43.2 µM); MIC (MRSA 745524; clinical MRSA 745524, two-fold serial dilution, Mueller-Hinton broth, 96-well plate, CLSI-based, maximum test concentration 128 μg/mL): 32 µg/mL (≈ 43.2 µM)
desotamide G [Compound 5]															MIC, antibacterial activities [8]: > 113 µg/mL
CC[C@@H](C)[C@@H]1NC(=O)[C@H](CC(N)=O)NC(=O)[C@@H](CCCCN)NC(=O)[C@H](Cc2c[nH]c3ccccc23)NC(=O)[C@H](CC(C)C)NC(=O)[C@@H](CC(C)C)NC1=O [Compound 11, Desotamide A2] (cyclo(LW[dK]N[aIle][dL]))	Inactive	>128 µg/mL	>128 µg/mL	>128 µg/mL	>128 µg/mL	>128 µg/mL	>128 µg/mL	>128 µg/mL	>128 µg/mL	>128 µg/mL	>128 µg/mL	>128 µg/mL	>128 µg/mL		
CC(C)C[C@@H]1NC(=O)[C@H](Cc2c[nH]c3ccccc23)NC(=O)[C@@H](CCCNC(=N)N)NC(=O)[C@H](CC(N)=O)NC(=O)[C@H](C(C)C)NC(=O)[C@@H](CC(C)C)NC1=O [Compound 8, Wollamide B1] (cyclo([dR]WL[dL]VN))		>128 µg/mL	64 µg/mL (≈ 81.8 µM)	8 µg/mL (≈ 10.2 µM)	8 µg/mL (≈ 10.2 µM)	16 µg/mL (≈ 20.5 µM)		32 µg/mL (≈ 40.9 µM)	16 µg/mL (≈ 20.5 µM)	16 µg/mL (≈ 20.5 µM)	32 µg/mL (≈ 40.9 µM)	8 µg/mL (≈ 10.2 µM)	16 µg/mL (≈ 20.5 µM)	128 µg/mL (≈ 164 µM)	fold increase of anti-Gram-positive activity compared to wollamide B (7) (Gram-positive pathogens; Gram-positive bacteria): 2–4 folds; Gram positive antibacterial activity for wollamides (in words) (Gram-positive pathogens): 2–4-Fold more active than 7; MIC [5, 11]: 16 µg/mL (≈ 20.5 µM)
CC[C@H](C)[C@@H]1NC(=O)[C@H](CC(N)=O)NC(=O)[C@@H](CCCNC(=N)N)NC(=O)[C@H](Cc2c[nH]c3ccccc23)NC(=O)[C@H](CC(C)C)NC(=O)[C@@H](CC(C)C)NC1=O [Compound 15, Desotamide A6] (cyclo(I[dL]LW[dR]N))	2–4-Fold more active than 1	>128 µg/mL	128 µg/mL (≈ 161 µM)	8 µg/mL (≈ 10.1 µM)	8 µg/mL (≈ 10.1 µM)	16 µg/mL (≈ 20.1 µM)	8 µg/mL (≈ 10.1 µM)	32 µg/mL (≈ 40.2 µM)	16 µg/mL (≈ 20.1 µM)	16 µg/mL (≈ 20.1 µM)	32 µg/mL (≈ 40.2 µM)	8 µg/mL (≈ 10.1 µM)	8 µg/mL (≈ 10.1 µM)		MIC against the Gram-negative pathogens tested (summary) (Gram-negative pathogens): 64 to 128 µg/mL; MIC values against Gram-positive pathogens (summary over the panel) (Gram-positive pathogens): 8 to 32 µg/mL; fold increase of antibacterial activities compared to desotamide A (1) (Gram-positive pathogens): 2–4 fold
polymyxin [reference compound]														16 µg/mL	MIC [1, 10]: 2 µg/mL
wollamide A [Compound 6]															antibacterial activity against Staphylococcus aureus (in words) (Staphylococcus aureus): no antibacterial
